Results published in patent US6905852B1, “Herbicide-resistant protoporphyrinogen oxidase isolated from Nicotiana tabacum” (Nihon Nohyaku Co., Ltd., priority 1997, dated 2005).
Read-outs that look alike come from different tables or passages of the source.

Columns and labels:
[1] = target: T1, E. coli SASX38 strain having pCR-RC with tobacco resistant type protoporphyrinogen oxidase gene (Nicotiana tabacum, UniProt O24163, A174P/A191P/A231V/T382S); assay: Growth inhibition of E. coli SASX38 (liquid culture with shaking); format: cell-based
T1 construct: expressed in transfected cells; host or cells: E. coli SASX38 (hemG-deficient) carrying pCR-RC
Procedure: (§1) The E. coli SASX38 strain containing either of the above-described two kinds of plasmid was cultured with shaking in LB liquid medium containing 50 μg/ml of ampicillin at 28° C. for overnight.

[2] = tested on: E. coli SASX38 strain having pCR-RC with tobacco resistant type protoporphyrinogen oxidase gene; assay: as above; format: cell-based, Nicotiana tabacum; conditions: for R/S b) Tobacco: Resistant type/Wild type; for Superiority c): b/a: tobacco R/S over Arabidopsis thaliana R/S
Procedure: as §1

[3] = target: T2, E. coli SASX38 strain having pBAtPX-RC with Arabidopsis thaliana resistant type protoporphyrinogen oxidase cDNA (Arabidopsis thaliana, UniProt P55826, A220V); assay: as above; format: cell-based; conditions: for R/S a) Arabidopsis thaliana: Resistant type/Wild type
T2 construct: expressed in transfected cells; host or cells: E. coli SASX38 (hemG-deficient) carrying pBAtPX-RC (pBluescript SK(-))
Procedure: as §1

[4] = target: T3, E. coli SASX38 strain having pCR-HC with tobacco wild type protoporphyrinogen oxidase cDNA (Nicotiana tabacum, UniProt O24163); assay: as above; format: cell-based
T3 construct: expressed in transfected cells; host or cells: E. coli SASX38 (hemG-deficient) carrying pCR-HC
T3 sequence (O24163 51-548): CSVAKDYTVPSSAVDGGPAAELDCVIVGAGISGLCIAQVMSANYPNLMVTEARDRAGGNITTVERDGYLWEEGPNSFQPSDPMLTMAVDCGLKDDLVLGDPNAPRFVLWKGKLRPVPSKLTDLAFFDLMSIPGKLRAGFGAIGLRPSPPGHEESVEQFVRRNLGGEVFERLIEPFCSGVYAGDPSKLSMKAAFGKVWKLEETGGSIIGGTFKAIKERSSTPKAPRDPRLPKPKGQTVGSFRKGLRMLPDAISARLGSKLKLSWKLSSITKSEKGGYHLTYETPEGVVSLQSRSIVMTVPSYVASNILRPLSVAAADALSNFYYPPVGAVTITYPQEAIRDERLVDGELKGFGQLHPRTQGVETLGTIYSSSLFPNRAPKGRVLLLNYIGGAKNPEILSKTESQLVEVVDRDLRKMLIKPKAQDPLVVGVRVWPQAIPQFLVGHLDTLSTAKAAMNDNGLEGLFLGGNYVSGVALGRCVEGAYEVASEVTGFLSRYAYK
Procedure: as §1

[5] = target: T4, E. coli SASX38 strain having pBAtPX-C with Arabidopsis thaliana wild type protoporphyrinogen oxidase gene (Arabidopsis thaliana, UniProt P55826); assay: as above; format: cell-based
T4 construct: expressed in transfected cells; host or cells: E. coli SASX38 (hemG-deficient) carrying pBAtPX-C (pBluescript SK(-))
T4 sequence (P55826 35-537): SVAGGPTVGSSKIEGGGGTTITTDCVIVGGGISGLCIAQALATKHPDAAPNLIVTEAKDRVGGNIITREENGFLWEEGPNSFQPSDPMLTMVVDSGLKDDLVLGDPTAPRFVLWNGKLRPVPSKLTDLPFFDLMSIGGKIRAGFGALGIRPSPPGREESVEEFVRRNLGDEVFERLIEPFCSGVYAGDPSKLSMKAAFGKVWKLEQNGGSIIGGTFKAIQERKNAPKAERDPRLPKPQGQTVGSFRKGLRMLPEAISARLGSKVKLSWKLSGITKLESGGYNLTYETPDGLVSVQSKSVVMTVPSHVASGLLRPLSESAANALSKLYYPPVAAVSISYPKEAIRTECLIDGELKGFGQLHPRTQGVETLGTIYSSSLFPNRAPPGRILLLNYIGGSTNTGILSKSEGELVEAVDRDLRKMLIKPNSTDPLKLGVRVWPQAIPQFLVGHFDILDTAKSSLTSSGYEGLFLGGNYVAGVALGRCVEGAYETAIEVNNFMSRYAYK
Procedure: as §1

tobacco callus [6] = assay: Sensitivity of tobacco callus to compound H (survival); format: cell-based, Nicotiana tabacum
Procedure: Tobacco (Nicotiana tabacum CV. Xanthi NC) was grown to 40 cm tall in a green house. And a leaf was cut, and the leaf was cut to square-shape of 5 cm width by a knife, then immersed in 70% ethanol for 30 seconds and in an aqueous solution of sodium hypochlorite (the effective concentration of chlorine was 1%) for 15 minutes to conduct surface-sterilization. After washing it for three times by sterilized water and removal of epidermis, the leaf fragment was suspended in 0.6M manitol (pH 5.8) containing an enzyme solution (1% cellulase onozuka R-10 and 0.05% macerozyme R-10 (manufactured by Yakult Co., Ltd.)) at 26° C. for three hours. After the enzyme treatment, protoplasts were washed with centrifugation by Murasige-Skoog (MS) medium for three times, and the obtained protoplast was suspended into MS solid medium containing 0.6% agar and 1 ppm of NAA and BA, to make a cell number of 10^8/ml, and pored into a dish at 1 cm thick. The protoplast was cultured at 27° C. under darkness to regenerate a callus. Four weeks after the incubation, the agar medium containing a callus grown up to about 1 mm large, was cut to rectangular shape having 1 cm width, and put on MS solid medium containing various concentration of the compound H (4-chloro-3-[2,4-dichloro-5(2-propenyloxy)phenyl]-5-difluoromethoxy-1-methyl-1H-pyrazole, described in Toku Kai Hei 3-163063), and the sensitivity of tobacco callus to photobleaching herbicide was examined. As shoen in Table 1, it become apparent that the callus completely dies at 10 nM.

sensitive cell line = assay: Accumulation of protoporphyrin IX in callus; format: cell-based, Nicotiana tabacum; conditions: 1,200 nM compound H
ETR-253 = assay: Accumulation of protoporphyrin IX in callus; format: cell-based, Nicotiana tabacum; conditions: 1,200 nM compound H
Procedure: (§2) The present inventors have tried to analyze the resistant mechanism in the resistant strain tolerant to photobleaching herbicide. It has been reported that in a plant treated by photobleaching herbicide, protoporphyrin IX is accumulated, the present inventors tried to measure the accumulation of protoporphyrin IX periodically. A resistant callus which has been subcultured in MS liquid medium containing 1,200 nM of compound H under light condition was cultured for 24 hours in a dark condition, then transplanted into MS liquid medium containing 1,200 nM of compound H, and after 6, 12, 18, 24, 32 and 48 hours later, the callus was collected, and protoporphyrin IX was measured. The extraction and assay of the protoporphyrin 1× from the callus were conducted as follows (Matringe, M. et al. (1989) Biochem, J. 260:231-235.). That is, 500 mg (wet weight) of the callus was homogenized in a mortar, and extracted with 7.5 ml of acetone: 1N NH4OH (9:1). The extract was centrifuged at 3,000×g for 10 minutes, then the supernatant was collected. To the supernatant 2.5 ml of hexane was added and mixed sufficiently, then, the lower layer was recovered. Further, after washing with hexane two twice, the amount of protoporphyrin IX obtained in the lower layer was measured from the value of Ex 405 nm-Em 631.5 nm by a fluorescence spectrophotometer. All the extraction procedures were conducted under the safety light.

ETR-056 line = assay: Accumulation of protoporphyrin IX in callus; format: cell-based, Nicotiana tabacum; conditions: 1,200 nM compound H
Procedure: as §2

ETR-245 = assay: Accumulation of protoporphyrin IX in callus; format: cell-based, Nicotiana tabacum; conditions: 1,200 nM compound H
Procedure: as §2

tobacco callus [7] = assay: Selection course of callus lines tolerant to the photobleaching herbicide; format: cell-based, Nicotiana tabacum
Procedure: Using a medium containing the compound H containing two times concentration (20 nM) of the concentration at which tobacco callus completely dies, the selection of tobacco callus tolerant to photobleaching herbicide has been started. 1×10^5 of tobacco callus have been selected (Table 2), in the course of re-generation from 1×10^10 of the protoplast.
number of protoplast given: 1×10^10

T2 sequence (P55826 35-537 A220V): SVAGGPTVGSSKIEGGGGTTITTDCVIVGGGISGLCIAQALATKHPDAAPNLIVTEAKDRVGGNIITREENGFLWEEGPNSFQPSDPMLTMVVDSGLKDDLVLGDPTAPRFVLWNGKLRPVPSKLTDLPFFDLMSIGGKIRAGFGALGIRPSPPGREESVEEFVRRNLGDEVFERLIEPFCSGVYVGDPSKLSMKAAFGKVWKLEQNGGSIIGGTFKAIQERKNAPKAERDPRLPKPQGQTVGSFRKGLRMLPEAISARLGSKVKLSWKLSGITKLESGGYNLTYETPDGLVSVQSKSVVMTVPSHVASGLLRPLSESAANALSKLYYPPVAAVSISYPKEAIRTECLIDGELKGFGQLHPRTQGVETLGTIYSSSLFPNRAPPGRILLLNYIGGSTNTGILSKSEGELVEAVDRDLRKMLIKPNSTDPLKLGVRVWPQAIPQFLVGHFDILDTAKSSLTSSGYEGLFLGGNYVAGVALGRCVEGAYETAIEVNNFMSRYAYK
T1 sequence (O24163 whole entry A174P/A191P/A231V/T382S): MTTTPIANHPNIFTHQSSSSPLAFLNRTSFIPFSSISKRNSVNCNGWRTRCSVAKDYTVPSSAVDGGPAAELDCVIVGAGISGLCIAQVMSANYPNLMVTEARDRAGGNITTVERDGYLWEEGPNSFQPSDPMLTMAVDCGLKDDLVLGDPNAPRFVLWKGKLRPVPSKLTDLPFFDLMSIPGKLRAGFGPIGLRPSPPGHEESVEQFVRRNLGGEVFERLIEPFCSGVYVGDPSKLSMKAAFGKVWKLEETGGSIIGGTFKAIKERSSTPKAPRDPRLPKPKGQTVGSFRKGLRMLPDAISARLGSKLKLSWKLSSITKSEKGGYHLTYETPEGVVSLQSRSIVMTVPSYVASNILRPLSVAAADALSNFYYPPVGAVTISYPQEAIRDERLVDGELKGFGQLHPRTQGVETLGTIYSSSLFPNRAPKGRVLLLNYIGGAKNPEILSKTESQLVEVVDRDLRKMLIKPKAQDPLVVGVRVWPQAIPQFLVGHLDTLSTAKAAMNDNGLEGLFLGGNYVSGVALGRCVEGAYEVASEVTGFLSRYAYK

CCOC(=O)C(C)Nc1cc(-c2nn(C)c(OC(F)F)c2Cl)c(Cl)cc1Cl (centres unmarked) [Comp.B, ethyl 2-[5-(4-chloro-5-difluoromethoxy-1-methyl-1H-pyrazol-3-yl)-2,4-dichloro-phenylamino]propionate]
IC50 [1]: > 20000 nM | R/S b) Tobacco [2]: 9,100 | Superiority c) [2]: >10.6 | IC50 [3]: 18000 nM | R/S a) Arabidopsis thaliana [3]: 860 | IC50 [4]: 2.2 nM | IC50 [5]: 21 nM

COc1cc(-c2nn(C)c(OC(F)F)c2Cl)c(F)cc1Cl [Comp.C, 4-chloro-3-(4-chloro-2-fluoro-5-methoxyphenyl)-5-difluoromethoxy-1-methyl-1H-pyrazole]
IC50 [1]: 2200 nM | R/S b) Tobacco [2]: 8,800 | Superiority c) [2]: 14.7 | IC50 [3]: 1800 nM | R/S a) Arabidopsis thaliana [3]: 600 | IC50 [4]: 0.25 nM | IC50 [5]: 3 nM

C#CCOc1cc(-c2nn(C)c(OC(F)F)c2Cl)c(F)cc1Cl [Comp.D, 4-chloro-3-[4-chloro-2-fluoro-5-(2-propynyl)oxyphenyl]-5-difluoromethoxy-1-methyl-1H-pyrazole]
IC50 [1]: 670 nM | R/S b) Tobacco [2]: 25,000 | Superiority c) [2]: 12.5 | IC50 [3]: 280 nM | R/S a) Arabidopsis thaliana [3]: 2,000 | IC50 [4]: 0.027 nM | IC50 [5]: 0.14 nM

CCOC(=O)C(C)Oc1cc(-c2nn(C)c(OC(F)F)c2Cl)c(F)cc1Cl (centres unmarked) [Comp.E, ethyl 2-[2-chloro-5-(4-chloro-5-difluoromethoxy-1-methyl-1H-pyrazol-3-yl)-4-fluorophenoxy]propionate]
IC50 [1]: 6300 nM | R/S b) Tobacco [2]: 12,000 | Superiority c) [2]: 12.6 | IC50 [3]: 4000 nM | R/S a) Arabidopsis thaliana [3]: 950 | IC50 [4]: 0.52 nM | IC50 [5]: 4.2 nM

CC(C)OC(=O)c1cc(-c2nn(C)c(C(F)(F)F)c2Br)c(F)cc1Cl [Comp.F, 1-methylethyl 5-[4-bromo-1-methyl-5-(trifluoromethyl)-1H-pyrazol-3-yl]-2-chloro-4-fluorobenzoate]
IC50 [1]: 15000 nM | R/S b) Tobacco [2]: 4,700 | Superiority c) [2]: 16.8 | IC50 [3]: 6400 nM | R/S a) Arabidopsis thaliana [3]: 280 | IC50 ([4]; E. coli liquid culture method with shaking, read-out: I50 (nM) Tobacco Wild): 3.2 nM | IC50 ([5]; E. coli liquid culture method with shaking, read-out: I50 (nM) Arabidopsis thaliana Wild): 23 nM

Cn1nc(-c2ccc(Cl)cc2F)c(Cl)c1OC(F)F [Comp.G, 4-chloro-3-(4-chloro-2-fluorophenyl)-5-difluorom ethoxy-1-methyl-1H-pyrazole]
IC50 [1]: 17000 nM | R/S b) Tobacco [2]: 5,500 | Superiority c) [2]: 12.0 | IC50 [3]: 8700 nM | R/S a) Arabidopsis thaliana [3]: 460 | IC50 [4]: 3.1 nM | IC50 [5]: 19 nM

C=CCOc1cc(-c2nn(C)c(OC(F)F)c2Cl)c(Cl)cc1Cl [compound H, 4-chloro-3-[2,4-dichloro-5(2-propenyloxy)phenyl]-5-difluoromethoxy-1-methyl-1H-pyrazole]
Survival Rate (%) (tobacco callus [6]; 2.5 nM): 30% | Survival Rate (%) (tobacco callus [6]; 5 nM): 10% | Survival Rate (%) (tobacco callus [6]; 8 nM (last line of the table)): 0% | Survival Rate (%) (tobacco callus [6]; 10 nM): 0% | Survival Rate (%) (tobacco callus [6]; 20 nM): 0% | Survival Rate (%) (tobacco callus [6]; 40 nM): 0% | concentration at which the callus completely dies (tobacco callus [6]; tobacco callus on MS solid medium): 10 nM | amount of protoporphyrin IX (sensitive cell line; 24 hours): 1.3 μg/g fresh weight | amount of protoporphyrin IX (sensitive cell line; 48 hours): 1.9 μg/g fresh weight | accumulation of protoporphyrin IX (ETR-253): little accumulation | amount of protoporphyrin IX (ETR-056 line; 24 hours): 1.7 μg/g fresh weight | amount of protoporphyrin IX (ETR-056 line; 48 hours): 4.6 μg/g fresh weight | accumulation of protoporphyrin IX (ETR-245): little accumulation | Number of resistant cell lines (tobacco callus [7]; 20 nM, protoplast given 1×10^10): 100,000 | Number of resistant cell lines (tobacco callus [7]; 30 nM): 50,000 | Number of resistant cell lines (tobacco callus [7]; 50 nM): 40,000 | Number of resistant cell lines (tobacco callus [7]; 75 nM): 7,200 | Number of resistant cell lines (tobacco callus [7]; 150 nM): 254 | Number of resistant cell lines (tobacco callus [7]; 300 nM): 120 | Number of resistant cell lines (tobacco callus [7]; 600 nM): 66 | Number of resistant cell lines (tobacco callus [7]; 1200 nM): 46 | Number of resistant cell lines (tobacco callus [7]; 2,400 nM): 36 | Number of resistant cell lines (tobacco callus [7]; 5,000 nM): 0
